Test results published in PubChem BioAssay AID1918995 (Molecular Pharmacology Branch, DTP, NCI, 2023).

Tested on: 324938-238-R-J1-PDC complex spheroid growth, % test/control
Test: Anticancer human tumor 324938-238-R-J1-PDC patient-derived bladder carcinoma cell line growth inhibition [AhR]
Details: for IC50: curve of first compound; for viability, T/C: stronger effect = lower value
How it was run: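 Spheroids combined tumor cells with HUVEC endothelial cells and human MSCs as stroma. AhR antagonists were paired with standard or investigational drugs, each dosed in half-log steps down from near clinical Cmax, or from 10 microM where Cmax was unknown.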

[1] = second compound 0.1 µM, first compound 0.0316 µM
[2] = second compound 0.1 µM, first compound 0.1 µM
[3] = second compound 0.1 µM, first compound 0.316 µM
[4] = second compound 0.1 µM, first compound 1 µM
[5] = second compound 0.1 µM, first compound 3.16 µM
[6] = second compound 0.1 µM, first compound 10 µM
[7] = second compound 0.316 µM, first compound 0.0316 µM
[8] = second compound 0.316 µM, first compound 0.1 µM
[9] = second compound 0.316 µM, first compound 0.316 µM
[10] = second compound 0.316 µM, first compound 1 µM
[11] = second compound 0.316 µM, first compound 3.16 µM
[12] = second compound 0.316 µM, first compound 10 µM
[13] = second compound 1 µM, first compound 0.0316 µM
[14] = second compound 1 µM, first compound 0.1 µM
[15] = second compound 1 µM, first compound 0.316 µM
[16] = second compound 1 µM, first compound 1 µM
[17] = second compound 1 µM, first compound 3.16 µM
[18] = second compound 1 µM, first compound 10 µM
[19] = second compound 3.16 µM, first compound 0.0316 µM
[20] = second compound 3.16 µM, first compound 0.1 µM
[21] = second compound 3.16 µM, first compound 0.316 µM
[22] = second compound 3.16 µM, first compound 1 µM
[23] = second compound 3.16 µM, first compound 3.16 µM
[24] = second compound 3.16 µM, first compound 10 µM
[25] = second compound 10 µM, first compound 0.0316 µM
[26] = second compound 10 µM, first compound 0.1 µM
[27] = second compound 10 µM, first compound 0.316 µM
[28] = second compound 10 µM, first compound 1 µM
[29] = second compound 10 µM, first compound 3.16 µM
[30] = second compound 10 µM, first compound 10 µM
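Note: spheroids exposed to agents for seven days before viability read.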

CCc1c2c(nc3ccc(O)cc13)-c1cc3c(c(=O)n1C2)COC(=O)[C@]3(O)CC + Cc1ccccc1N=Nc1ccc(NC(=O)c2ccnn2C)c(C)c1
IC50 (second compound 0.1 µM): 3.21 nM | IC50 (second compound 0.316 µM): 2.48 nM | IC50 (second compound 1 µM): 1.88 nM | IC50 (second compound 3.16 µM): 1.25 nM | IC50 (second compound 10 µM): 1.44 nM | viability, T/C (second compound 0.1 µM, first compound 0.000949 µM): 62.4% | viability, T/C (second compound 0.1 µM, first compound 0.003 µM): 52% | viability, T/C (second compound 0.1 µM, first compound 0.00949 µM): 18.5% | viability, T/C (second compound 0.1 µM, first compound 0.03 µM): 15.2% | viability, T/C (second compound 0.1 µM, first compound 0.0949 µM): 16.2% | viability, T/C (second compound 0.1 µM, first compound 0.3 µM): 15.5% | viability, T/C (second compound 0.316 µM, first compound 0.000949 µM): 57.4% | viability, T/C (second compound 0.316 µM, first compound 0.003 µM): 48.5% | viability, T/C (second compound 0.316 µM, first compound 0.00949 µM): 17.1% | viability, T/C (second compound 0.316 µM, first compound 0.03 µM): 16.4% | viability, T/C (second compound 0.316 µM, first compound 0.0949 µM): 14.2% | viability, T/C (second compound 0.316 µM, first compound 0.3 µM): 16.1% | viability, T/C (second compound 1 µM, first compound 0.000949 µM): 52.4% | viability, T/C (second compound 1 µM, first compound 0.003 µM): 48.4% | viability, T/C (second compound 1 µM, first compound 0.00949 µM): 17.9% | viability, T/C (second compound 1 µM, first compound 0.03 µM): 12.9% | viability, T/C (second compound 1 µM, first compound 0.0949 µM): 15.8% | viability, T/C (second compound 1 µM, first compound 0.3 µM): 15.1% | viability, T/C (second compound 3.16 µM, first compound 0.000949 µM): 50.9% | viability, T/C (second compound 3.16 µM, first compound 0.003 µM): 47.9% | viability, T/C (second compound 3.16 µM, first compound 0.00949 µM): 14.9% | viability, T/C (second compound 3.16 µM, first compound 0.03 µM): 12.8% | viability, T/C (second compound 3.16 µM, first compound 0.0949 µM): 13.8% | viability, T/C (second compound 3.16 µM, first compound 0.3 µM): 15.4% | viability, T/C (second compound 10 µM, first compound 0.000949 µM): 52.3% | viability, T/C (second compound 10 µM, first compound 0.003 µM): 46% | viability, T/C (second compound 10 µM, first compound 0.00949 µM): 19.9% | viability, T/C (second compound 10 µM, first compound 0.03 µM): 12.9% | viability, T/C (second compound 10 µM, first compound 0.0949 µM): 14% | viability, T/C (second compound 10 µM, first compound 0.3 µM): 16.2%

Nc1ccccc1NC(=O)c1ccc(CNC(=O)OCc2cccnc2)cc1 + Cc1ccccc1N=Nc1ccc(NC(=O)c2ccnn2C)c(C)c1
IC50 (second compound 0.1 µM): 2230 nM | IC50 (second compound 0.316 µM): 1740 nM | IC50 (second compound 1 µM): 3830 nM | IC50 (second compound 3.16 µM): 2750 nM | IC50 (second compound 10 µM): 3090 nM | viability, T/C [1]: 104% | viability, T/C [2]: 118% | viability, T/C [3]: 98.1% | viability, T/C [4]: 62.1% | viability, T/C [5]: 48.6% | viability, T/C [6]: 38.3% | viability, T/C [7]: 93.7% | viability, T/C [8]: 110% | viability, T/C [9]: 104% | viability, T/C [10]: 55.5% | viability, T/C [11]: 50.2% | viability, T/C [12]: 37.8% | viability, T/C [13]: 91.8% | viability, T/C [14]: 94.5% | viability, T/C [15]: 85.8% | viability, T/C [16]: 64.6% | viability, T/C [17]: 56% | viability, T/C [18]: 38% | viability, T/C [19]: 82.9% | viability, T/C [20]: 102% | viability, T/C [21]: 79.1% | viability, T/C [22]: 58.4% | viability, T/C [23]: 53.7% | viability, T/C [24]: 43.1% | viability, T/C [25]: 86.8% | viability, T/C [26]: 91.4% | viability, T/C [27]: 77.4% | viability, T/C [28]: 57.7% | viability, T/C [29]: 56.4% | viability, T/C [30]: 40.5%

Nc1ccn(C2OC(CO)C(O)C2(F)F)c(=O)n1 (stereo not given) + Cc1ccccc1N=Nc1ccc(NC(=O)c2ccnn2C)c(C)c1
IC50 (second compound 0.1 µM): 37.1 nM | IC50 (second compound 0.316 µM): < 31.6 nM | IC50 (second compound 1 µM): < 31.6 nM | IC50 (second compound 3.16 µM): < 31.6 nM | IC50 (second compound 10 µM): < 31.6 nM | viability, T/C [1]: 53.1% | viability, T/C [2]: 32.3% | viability, T/C [3]: 15.5% | viability, T/C [4]: 14.1% | viability, T/C [5]: 10.4% | viability, T/C [6]: 8.56% | viability, T/C [7]: 47.2% | viability, T/C [8]: 24.7% | viability, T/C [9]: 15.4% | viability, T/C [10]: 12.3% | viability, T/C [11]: 10.3% | viability, T/C [12]: 8.15% | viability, T/C [13]: 43.7% | viability, T/C [14]: 34.1% | viability, T/C [15]: 16.8% | viability, T/C [16]: 13.2% | viability, T/C [17]: 9.31% | viability, T/C [18]: 7.14% | viability, T/C [19]: 46.6% | viability, T/C [20]: 32.8% | viability, T/C [21]: 15.7% | viability, T/C [22]: 12.6% | viability, T/C [23]: 10.9% | viability, T/C [24]: 7.52% | viability, T/C [25]: 44.9% | viability, T/C [26]: 34.8% | viability, T/C [27]: 19.2% | viability, T/C [28]: 14.3% | viability, T/C [29]: 13.1% | viability, T/C [30]: 8.08%

O=C(c1cc(Cc2n[nH]c(=O)c3ccccc23)ccc1F)N1CCN(C(=O)C2CC2)CC1 + Cc1ccccc1N=Nc1ccc(NC(=O)c2ccnn2C)c(C)c1
IC50 (second compound 0.1 µM): > 10000 nM | IC50 (second compound 0.316 µM): > 10000 nM | IC50 (second compound 1 µM): > 10000 nM | IC50 (second compound 3.16 µM): > 10000 nM | IC50 (second compound 10 µM): > 10000 nM | viability, T/C [1]: 98% | viability, T/C [2]: 105% | viability, T/C [3]: 101% | viability, T/C [4]: 103% | viability, T/C [5]: 87.6% | viability, T/C [6]: 75.5% | viability, T/C [7]: 99.4% | viability, T/C [8]: 99.8% | viability, T/C [9]: 91.7% | viability, T/C [10]: 92.1% | viability, T/C [11]: 89.8% | viability, T/C [12]: 68.5% | viability, T/C [13]: 94.4% | viability, T/C [14]: 100% | viability, T/C [15]: 95.5% | viability, T/C [16]: 90.6% | viability, T/C [17]: 78.7% | viability, T/C [18]: 72.3% | viability, T/C [19]: 84.5% | viability, T/C [20]: 79% | viability, T/C [21]: 87.3% | viability, T/C [22]: 84.5% | viability, T/C [23]: 74.4% | viability, T/C [24]: 65.2% | viability, T/C [25]: 84.6% | viability, T/C [26]: 83.4% | viability, T/C [27]: 81.2% | viability, T/C [28]: 85.1% | viability, T/C [29]: 72.4% | viability, T/C [30]: 65.9%
